Reference: patent publication US20050209157A1, “Short bioactive peptides and methods for their use” (priority 2001, published 2005)
No end group written: not given here.

Legend:
Escherichia coli 25922 = test: microbe, parasite or virus in culture; conditions: for MBC: Escherichia coli, 25922, read-out: MBC, Without peptide
Excerpt: Synergy between peptide Shiva-10 (SEQ ID NO:4) and various antimicrobial agents was investigated against Escherichia coli 25922.
Synergy between tetracycline and various peptides was investigated against Escherichia coli 25922 MBC. […] When combined with the peptides, the concentration of tetracycline was held at 1.5 ppm.

S. aureus (MRSA) = type: cell-based, Staphylococcus aureus; conditions: Table 11, strain SAP0017; in µg/mL
E. coli UB1005 = type: cell-based, Escherichia coli; conditions: Table 11
S. typhimurium 14028S = type: cell-based, Salmonella typhimurium; conditions: Table 11
[1] = test system: Pseudomonas aeruginosa H187; type: cell-based; conditions: Table 11; in µg/mL
Candida albicans 105 = type: cell-based; conditions: Table 10; in µg/mL
[2] = test system: Candida tropicalis ATCC13803; test: Antimicrobial assays II, NCCLS broth microdilution MIC; type: cell-based; conditions: Table 10
Protocol: Anti-microbial activity against a broader range of pathogens (including clinical strains) than were tested in Example 2. It should be noted that somewhat different protocols were employed for the assays in Example 2 and Example 3.
MICs were determined for this Example using a slightly modified version of the NCCLS (National Committee for Clinical Laboratory Standards) broth microdilution method as described previously (Steinberg et al., AAC 41: 1738, 1997). Briefly, antimicrobial agents were prepared as 10× concentrates in the most appropriate solvent. For the peptide, 0.01% acetic acid containing 0.2% bovine serum albumin as a carrier protein was used. Inocula were prepared by resuspending colonies from a BAP in medium and adjusting the suspension to match that of a 0.5 McFarland standard. The suspension was diluted into fresh medium (as recommended by NCCLS for the organism) to give 2×10^5 to 7×10^5 CFU/ml for bacteria or 2×10^3 to 7×10^3 CFU/ml for Candida. After dispensing 100 μl aliquots of the microbial suspension into each well of a 96-well polypropylene microtiter plate, 11 μl of test compound was added. […] For facultative anaerobes incubation was performed in 7% carbon dioxide and for strict anaerobes in an oxygen free environment maintained using a standard anaerobic “jar”. All MICs were performed three times and the mean value determined.

[3] = test system: Candida glabrata ATCC15126; test: as above; type: cell-based; conditions: Table 10; in µg/mL
[4] = test system: Pseudomonas aeruginosa ATCC 9027; test: Antimicrobial assay I, MIC by OD measurement; type: cell-based
cancer cell lines = test: Anti-cancer assays, MTT, summary over the cancer cell lines; type: cell-based; conditions: X = preferred
in vitro [5] = type: cell-based, human; conditions: human, human red blood cells, pH 7, Table 26, valine substitution; read-out: Hemolysis RBC LD50
[6] = test system: human red blood cells (RBC); test: in vitro; type: cell-based; conditions: Table 27
fungal = test: Presently preferred antifungal peptides, selected from the MIC/MBC data; type: cell-based; conditions: X = preferred
Excerpt: The peptide's “length” is the number of amino acid residues in the sequence.

WI38 = conditions: Table 27
in vitro [7] = conditions: human, WI38 normal lung fibroblast cells, WI-38 LD50, Table 26, valine substitution
[8] = test system: Escherichia coli ATCC 25922; test: Antimicrobial assay I, modified protocol (tryptic soy broth), MBC; conditions: minimum bactericidal concentration, Table 4
Protocol: (§1) The preparation of all media, stock solutions, and dilutions took place in a laminar flow hood to prevent contamination. Bacterial cells were freshly grown on antibiotic medium 2 agar slants (pH 7.0 at 25° C.). Bacteria were suspended and diluted in antibiotic medium 3 to about 10^4 cfu/ml and used as the inoculum. Sample solutions (100 μl/well) were added to plates according to the plate layout. Inoculum (100 μl/well) was added to achieve a final concentration of 5×10^3 cfu/ml. Negative controls received 100 μl saline and 100 μl growth medium. Positive controls received 100 μl saline and 100 μl inoculum. Bacterial plates were incubated at 37° C. for 24 hours.
(§2) However, the data for Table 4 were obtained with a modified protocol wherein the medium was tryptic soy broth, inocolum strength was approximately 10^4 CFU per ml, and values determined were minimum bactericidal concentrations (MBC) or minimum fungicidal concentrations (MFC).
(§3) MBC or MFC values are in μg/mL. E. coli is Escherichia coli ATCC accession number 25922; P. aerug is Pseudomonas aeruginosa ATCC accession number 27853, S. aur. is Stapholococcus aureus ATCC accession number 25923; Candida is Candida albicans ATCC accession number 10231.

[9] = test system: Pseudomonas aeruginosa ATCC 27853; test: as above; conditions: minimum bactericidal concentration, Table 4
[10] = test system: Stapholococcus aureus ATCC 25923; test: as above; conditions: minimum bactericidal concentration, Table 4
Protocol: as §1, §2, §3

[11] = test system: Candida albicans ATCC 10231; test: Antimicrobial assay I, modified protocol (tryptic soy broth), MFC; conditions: minimum fungicidal concentration, Table 4
[12] = test system: MCF7 line of breast cancer cells

Compound	MIC S. aureus SAP0017 (S. aureus (MRSA))	MIC E. coli UB1005 (E. coli UB1005)	MIC S. typhimurium 14028S (S. typhimurium 14028S)	MIC P. aeruginosa H187 [1]	MIC C. albicans 105 (Candida albicans 105)	MIC C. tropicalis ATCC13803 [2]	MIC C. glabrata ATCC15126 [3]	also measured
FALALKALKKLKKALKKAL-NH2 [FLAK 06AM (P27; SEQ ID NO: 12)]	–	–	–	–	–	–	–	MBC, Without tetracycline (Escherichia coli 25922; peptide alone): 75 µg/mL; MBC, With tetracycline (Escherichia coli 25922; tetracycline held at […]): 25 µg/mL
FAKLLAKALKLKL-NH2 [P101 (65)]	128	32 µg/mL	128 µg/mL	32-128	32	4 µg/mL	32	–
FAKKLKKLAKKL-NH2 [P79 (54)]	>128	32 µg/mL	> 128 µg/mL	>128	32	2 µg/mL	128	–
FAKLLAKLAKKLL-NH2 [compound 43]	–	–	–	–	–	–	–	P. aerug (MIC) [4]: 100 µg/mL; Anti-cancer (preferred peptide) (cancer cell lines): X (Preferred anticancer peptides can be selected as having LD50 values of less than or equal to about 25 μg/ml); HC50 at 1 h (in vitro [5]): 20 µg/mL; Hemolysis (LD50) [6]: 20 µg/mL; Anti-fungal (preferred peptide) (fungal): X (Preferred antifungal peptides can be selected as having MIC or MBC values of less than or equal to about 25 μg/ml); WI38 LD50 (WI38): 25 µg/mL; CC50 at 24 h (in vitro [7]): 25 µg/mL; MBC E. coli A.25922 [8]: 8 µg/mL; MBC P. aerug A.27853 [9]: 15 µg/mL; MBC S. aur A.25923 [10]: 4 µg/mL; MFC Candida A.10231 [11]: 15 µg/mL
FKLAFKLAKKAFL-NH2 [P122 (84)]	128	64 µg/mL	128 µg/mL	32-128	32	4 µg/mL	64	–
FAKLLAKLAKKL-NH2 [P49 (31)]	64	32 µg/mL	64 µg/mL	16-64	16	2 µg/mL	16	–
VAKLLAKLAKKVL-NH2 [P154 (116)]	>128	64 µg/mL	> 128 µg/mL	>128	64	8 µg/mL	128	–
C[C@H]1c2cccc(O)c2C(=O)C2=C(O)[C@]3(O)C(=O)C(C(N)=O)=C(O)[C@@H](N(C)C)[C@@H]3[C@@H](O)[C@@H]21 [Doxycycline]	–	–	–	–	–	–	–	MBC (Escherichia coli 25922): 5 µg/mL; MBC, With peptide (Escherichia coli 25922; with 15 μg/mL peptide Shiva-10): 1 µg/mL
FAKKALKALKKL-NH2 [P47 (29)]	>128	64 µg/mL	> 128 µg/mL	64-128	32	1 µg/mL	64	–
NCC[C@H](O)C(=O)N[C@@H]1C[C@H](N)[C@@H](O[C@H]2O[C@H](CN)[C@@H](O)[C@H](O)[C@H]2O)[C@H](O)[C@H]1O[C@H]1O[C@H](CO)[C@@H](O)[C@H](N)[C@H]1O [Amikacin]	–	–	–	–	–	–	–	MBC (Escherichia coli 25922): 150 µg/mL; MBC, With peptide (Escherichia coli 25922; with 5 μg/mL peptide Shiva-10): 50 µg/mL
FAKLLAKALKKL-NH2 [P103 (67)]	64	32 µg/mL	128 µg/mL	64	16	2 µg/mL	16	–
FAKKLAKKAKLAKKL-NH2 [P77 (53)]	>128	64 µg/mL	> 128 µg/mL	64-128	16	1 µg/mL	64	–
FALAKKALKKAKKAL-NH2 [P40 (22)]	>128	64 µg/mL	> 128 µg/mL	>128	32	1 µg/mL	32	–
FALALKLAKKAL-NH2 [P167 (128)]	128	32 µg/mL	64 µg/mL	128	64	8 µg/mL	128	–
FAKKLAKLAKKL-NH2 [P106 (70)]	>128	64 µg/mL	> 128 µg/mL	>128	32	2 µg/mL	64	–
CC/C(=C(\c1ccccc1)c1ccc(OCCN(C)C)cc1)c1ccccc1 [Tamoxifen]	–	–	–	–	–	–	–	MCF7 LD50 ([12]; agent alone): 20 µg/mL; Active agent LD50 on MCF7 cells: Total conc. ([12]; peptide plus tamoxifen concentration at LD50): 20 µg/mL; Active agent LD50 on MCF7 cells: Tamox. conc. ([12]; tamoxifen concentration at LD50 (peptide with tamoxifen; tamoxifen alone in its own line)): 20 µg/mL
FAKLLAKFLKKAL-NH2 [P113 (77)]	32	32 µg/mL	44 µg/mL	32-128	32	4 µg/mL	32	–
FAKKLAKKLAKAL-NH2 [P74 (50)]	>128	16 µg/mL	64 µg/mL	32-128	16	1 µg/mL	16	–
NC[C@@H]1O[C@H](O[C@H]2[C@@H](O)[C@H](O[C@@H]3[C@@H](O)[C@H](N)C[C@H](N)[C@H]3O[C@H]3O[C@H](CN)[C@@H](O)[C@H](O)[C@H]3N)O[C@@H]2CO)[C@H](N)[C@@H](O)[C@@H]1O [Neomycin]	–	–	–	–	–	–	–	MBC, Without peptide (Escherichia coli 25922; agent alone): 100 µg/mL; MBC, With peptide (Escherichia coli 25922; with 5 μg/mL peptide Shiva-10): 5 µg/mL
